Experimental data from PubChem BioAssay (NCI).
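Grown in 96-well plates, cells were treated for 48 hours with each compound at five concentrations. Insufficient inhibition: endpoint recorded as highest concentration tested. The concentration for full growth arrest is given as TGI.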

Key:
Test in all cases: NCI anticancer screen, dose series, 48 h
[1] = system: NCI/ADR-RES ovarian
[2] = system: K-562 leukemia
[3] = system: MDA-N
[4] = system: HCT-15 colon
[5] = system: DU-145 prostate
[6] = system: MCF7 breast
[7] = system: SK-MEL-5 melanoma
[8] = system: RPMI-8226 leukemia
[9] = system: ACHN renal
[10] = system: COLO 205 colon
[11] = system: PC-3 prostate
[12] = system: MDA-MB-231 breast
[13] = system: SK-MEL-2 melanoma
[14] = system: MDA-MB-435
[15] = system: SF-268 CNS
[16] = system: HT29 colon
[17] = system: SNB-19 CNS
[18] = system: TK-10 renal
[19] = system: SR leukemia
[20] = system: SK-OV-3 ovarian
[21] = system: HCT-116 colon
[22] = system: M14 melanoma
[23] = system: NCI-H460 lung
[24] = system: OVCAR-5 ovarian
[25] = system: UACC-257 melanoma
[26] = system: KM12 colon
[27] = system: UACC-62 melanoma
[28] = system: CCRF-CEM leukemia
[29] = system: HOP-62 NSCLC
[30] = system: MALME-3M melanoma
[31] = system: T-47D breast
[32] = system: HCC-2998 colon
[33] = system: IGROV1 ovarian
[34] = system: SN12C renal
[35] = system: SF-539 CNS
[36] = system: SK-MEL-28 melanoma
[37] = system: BT-549 breast
[38] = system: A498 renal
[39] = system: 786-0 renal
[40] = system: SW-620 colon
[41] = system: OVCAR-8 ovarian
[42] = system: U251 CNS
[43] = system: UO-31 renal
[44] = system: A549 NSCLC
[45] = system: RXF 393 renal
[46] = system: MOLT-4 leukemia
[47] = system: CAKI-1 renal
[48] = system: EKVX NSCLC
[49] = system: OVCAR-3 ovarian
[50] = system: SNB-75 CNS
[51] = system: NCI-H522 lung
[52] = system: SF-295 CNS
[53] = system: LOX IMVI melanoma
[54] = system: NCI-H23 lung
[55] = system: NCI-H226 lung
[56] = system: OVCAR-4 ovarian
[57] = system: HOP-92 NSCLC
[58] = system: HL-60(TB) leukemia
[59] = system: HS 578T breast

CNC(=O)C(C)C1C(=O)/C(=C(O)/C=C\C(C)=C\C(C)C2OC3(C)OC(C=CC34CO4)C2C)C(=O)N1C1CCC(O)C(C)O1 (stereo not drawn)
TGI [1]: > 100 µM | TGI [2]: > 100 µM | TGI [3]: > 100 µM | TGI [4]: > 100 µM | TGI [5]: > 100 µM | TGI [6]: > 100 µM | TGI [7]: > 100 µM | TGI [8]: > 100 µM | TGI [9]: > 100 µM | TGI [10]: > 100 µM | TGI [11]: > 100 µM | TGI [12]: > 100 µM | TGI [13]: > 100 µM | TGI [14]: > 100 µM | TGI [15]: > 100 µM | TGI [16]: > 100 µM | TGI [17]: > 100 µM | TGI [18]: > 100 µM | TGI [19]: > 100 µM | TGI [20]: > 100 µM | TGI [21]: > 100 µM | TGI [22]: > 100 µM | TGI [23]: > 100 µM | TGI [24]: > 100 µM | TGI [25]: > 100 µM | TGI [26]: > 100 µM | TGI [27]: > 100 µM | TGI [28]: > 100 µM | TGI [29]: > 100 µM | TGI [30]: > 100 µM | TGI [31]: > 100 µM | TGI [32]: > 100 µM | TGI [33]: > 100 µM | TGI [34]: > 100 µM | TGI [35]: > 100 µM | TGI [36]: > 100 µM | TGI [37]: > 100 µM | TGI [38]: > 100 µM | TGI [39]: > 100 µM | TGI [40]: > 100 µM | TGI [41]: > 100 µM | TGI [42]: > 100 µM | TGI [43]: > 100 µM | TGI [44]: > 100 µM | TGI [45]: > 100 µM | TGI [46]: > 100 µM | TGI [47]: > 100 µM | TGI [48]: > 100 µM | TGI [49]: > 100 µM | TGI [50]: > 100 µM

C=C(C)C(=O)OC1CC2(C)OC(=CC2=O)C(C)CC2OC(=O)C(=C)C12 (stereo not drawn)
TGI [1]: 69.8 µM | TGI [3]: 7.98 µM | TGI [4]: 5.19 µM | TGI [5]: 18.7 µM | TGI [6]: 26.6 µM | TGI [7]: 13.4 µM | TGI [8]: > 100 µM | TGI [9]: 14.4 µM | TGI [10]: 3.31 µM | TGI [11]: 31.8 µM | TGI [51]: 4.2 µM | TGI [52]: 38.1 µM | TGI [12]: 38.8 µM | TGI [13]: 34.3 µM | TGI [14]: 25.8 µM | TGI [15]: > 100 µM | TGI [16]: 24.2 µM | TGI [17]: 39.2 µM | TGI [18]: 28.3 µM | TGI [19]: > 24.7 µM | TGI [20]: > 100 µM | TGI [21]: 5.15 µM | TGI [53]: 17.8 µM | TGI [22]: 24.2 µM | TGI [23]: 29.7 µM | TGI [24]: 26.9 µM | TGI [25]: 35.2 µM | TGI [26]: 55.3 µM | TGI [54]: 24.6 µM | TGI [27]: 27.7 µM | TGI [29]: 38.1 µM | TGI [30]: 16.1 µM | TGI [31]: 27.8 µM | TGI [32]: 24.8 µM | TGI [33]: 25.4 µM | TGI [55]: > 62.8 µM | TGI [56]: 20.1 µM | TGI [34]: 36.7 µM | TGI [35]: 14.2 µM | TGI [57]: 28.7 µM | TGI [36]: 30.2 µM | TGI [37]: 21.4 µM | TGI [38]: 37.6 µM | TGI [39]: 17.6 µM | TGI [40]: 18.3 µM | TGI [41]: 35.6 µM | TGI [42]: 74.5 µM | TGI [43]: 16.6 µM | TGI [44]: 47.7 µM | TGI [45]: 5.62 µM | TGI [46]: > 35.1 µM | TGI [47]: 9.02 µM | TGI [48]: 25.1 µM | TGI [49]: 19 µM | TGI [50]: 49.2 µM

CCN(CC)c1ccc2cc(-c3nc(-c4ccccc4)n[nH]3)c(=O)oc2c1
TGI [1]: > 100 µM | TGI [2]: > 100 µM | TGI [3]: > 100 µM | TGI [4]: > 100 µM | TGI [5]: 40.4 µM | TGI [6]: > 100 µM | TGI [7]: > 100 µM | TGI [8]: > 100 µM | TGI [9]: > 100 µM | TGI [10]: > 100 µM | TGI [11]: 70.1 µM | TGI [51]: > 100 µM | TGI [52]: > 100 µM | TGI [13]: > 100 µM | TGI [14]: > 100 µM | TGI [15]: > 100 µM | TGI [16]: > 100 µM | TGI [17]: 61.5 µM | TGI [58]: > 100 µM | TGI [19]: > 100 µM | TGI [20]: 39.4 µM | TGI [21]: > 100 µM | TGI [53]: > 100 µM | TGI [22]: > 100 µM | TGI [23]: > 100 µM | TGI [24]: > 100 µM | TGI [25]: > 100 µM | TGI [26]: > 100 µM | TGI [54]: 44.6 µM | TGI [27]: > 100 µM | TGI [28]: > 100 µM | TGI [29]: 22 µM | TGI [30]: > 100 µM | TGI [32]: > 100 µM | TGI [33]: 57.9 µM | TGI [56]: 53.7 µM | TGI [35]: 45.6 µM | TGI [36]: > 100 µM | TGI [37]: 89.3 µM | TGI [38]: 90.1 µM | TGI [39]: 32.1 µM | TGI [40]: > 100 µM | TGI [59]: > 100 µM | TGI [41]: 28.7 µM | TGI [42]: 96.2 µM | TGI [43]: 20.4 µM | TGI [44]: > 100 µM | TGI [46]: > 100 µM | TGI [47]: 73.8 µM | TGI [48]: 88.7 µM | TGI [49]: > 100 µM

CC1(CO)OC(n2cnc3cncnc32)CC1O (stereo not drawn)
TGI [1]: > 100 µM | TGI [2]: > 100 µM | TGI [3]: > 100 µM | TGI [4]: > 100 µM | TGI [5]: > 100 µM | TGI [6]: > 100 µM | TGI [7]: > 100 µM | TGI [8]: > 100 µM | TGI [9]: > 100 µM | TGI [10]: > 100 µM | TGI [11]: > 100 µM | TGI [51]: > 100 µM | TGI [52]: > 100 µM | TGI [12]: > 100 µM | TGI [13]: > 100 µM | TGI [14]: > 100 µM | TGI [15]: > 100 µM | TGI [16]: > 100 µM | TGI [17]: > 100 µM | TGI [58]: > 100 µM | TGI [18]: > 100 µM | TGI [19]: > 100 µM | TGI [20]: > 100 µM | TGI [21]: > 100 µM | TGI [22]: > 100 µM | TGI [23]: > 100 µM | TGI [24]: > 100 µM | TGI [25]: > 100 µM | TGI [26]: > 100 µM | TGI [54]: > 100 µM | TGI [27]: > 100 µM | TGI [28]: > 100 µM | TGI [29]: > 100 µM | TGI [30]: > 100 µM | TGI [31]: > 100 µM | TGI [32]: > 100 µM | TGI [33]: > 100 µM | TGI [55]: > 100 µM | TGI [56]: > 100 µM | TGI [34]: > 100 µM | TGI [35]: > 100 µM | TGI [57]: > 100 µM | TGI [36]: > 100 µM | TGI [37]: > 100 µM | TGI [38]: > 100 µM | TGI [39]: > 100 µM | TGI [40]: > 100 µM | TGI [41]: > 100 µM | TGI [42]: > 100 µM | TGI [43]: > 100 µM | TGI [44]: > 100 µM | TGI [45]: > 100 µM | TGI [46]: > 100 µM | TGI [47]: > 100 µM | TGI [48]: > 100 µM | TGI [49]: > 100 µM

CC(=NC1CCCCC1)c1ccccc1O
TGI [1]: > 100 µM | TGI [2]: > 100 µM | TGI [3]: > 100 µM | TGI [4]: > 100 µM | TGI [5]: > 100 µM | TGI [6]: > 100 µM | TGI [7]: > 100 µM | TGI [8]: > 100 µM | TGI [9]: > 100 µM | TGI [10]: > 100 µM | TGI [11]: > 100 µM | TGI [51]: > 100 µM | TGI [52]: > 100 µM | TGI [12]: > 100 µM | TGI [13]: > 100 µM | TGI [14]: > 100 µM | TGI [15]: > 100 µM | TGI [16]: > 100 µM | TGI [17]: > 100 µM | TGI [58]: > 100 µM | TGI [18]: > 100 µM | TGI [19]: > 100 µM | TGI [20]: > 100 µM | TGI [21]: > 100 µM | TGI [53]: > 100 µM | TGI [22]: > 100 µM | TGI [23]: > 100 µM | TGI [24]: > 100 µM | TGI [25]: > 100 µM | TGI [26]: > 100 µM | TGI [54]: > 100 µM | TGI [27]: > 100 µM | TGI [28]: > 100 µM | TGI [29]: > 100 µM | TGI [30]: > 100 µM | TGI [31]: > 100 µM | TGI [33]: > 100 µM | TGI [55]: > 100 µM | TGI [56]: > 100 µM | TGI [34]: > 100 µM | TGI [35]: > 100 µM | TGI [57]: > 100 µM | TGI [36]: > 100 µM | TGI [37]: > 100 µM | TGI [38]: > 100 µM | TGI [39]: > 100 µM | TGI [40]: > 100 µM | TGI [41]: > 100 µM | TGI [42]: > 100 µM | TGI [43]: > 100 µM | TGI [44]: > 100 µM | TGI [45]: > 100 µM | TGI [46]: > 100 µM | TGI [47]: > 100 µM | TGI [48]: > 100 µM | TGI [50]: > 100 µM
